We go through 9 compounds from patent publication US20070142295A1, “Thrombopoietic compounds” (AMGEN INC., priority 1998, published 2007).

Assay [1] deals with T1, c-Mp1 (Homo sapiens, UniProt P40238).
T1 sequence (P40238 26-635): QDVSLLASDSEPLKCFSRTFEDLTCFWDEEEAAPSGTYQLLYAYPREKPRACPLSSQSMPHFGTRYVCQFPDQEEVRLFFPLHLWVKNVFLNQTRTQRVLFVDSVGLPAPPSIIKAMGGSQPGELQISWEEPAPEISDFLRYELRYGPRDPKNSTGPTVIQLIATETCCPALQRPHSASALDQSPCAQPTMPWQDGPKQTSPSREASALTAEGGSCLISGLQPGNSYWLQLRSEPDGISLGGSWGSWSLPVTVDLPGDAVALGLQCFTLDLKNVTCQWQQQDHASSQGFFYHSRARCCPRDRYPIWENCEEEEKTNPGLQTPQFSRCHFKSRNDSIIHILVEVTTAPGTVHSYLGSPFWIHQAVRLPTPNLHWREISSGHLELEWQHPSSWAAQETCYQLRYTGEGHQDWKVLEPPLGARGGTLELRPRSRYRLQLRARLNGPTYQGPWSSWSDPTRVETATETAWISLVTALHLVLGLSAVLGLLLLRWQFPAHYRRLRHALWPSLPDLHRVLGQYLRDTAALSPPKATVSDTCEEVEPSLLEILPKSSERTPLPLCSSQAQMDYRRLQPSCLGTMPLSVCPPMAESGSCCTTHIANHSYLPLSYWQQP
As to conditions: cited from earlier work.

In assay [2] the target is T1, c-Mp1. As to conditions: cited from earlier work. The source holds these as a separate data set.
The next assay has as its target T2, human mpl receptor (Homo sapiens, UniProt P40238).
T2 construct: murine 32D cells transfected with the full-length c-Mp1; expressed in transfected cells; host or cells: IL-3 dependent clone of murine 32D cells
T2 sequence (P40238 26-635): T1 sequence (P40238 26-635)
The experiment in a line: TPO in vitro bioassay: mitogenic/cell-proliferation assay with IL-3 dependent murine 32D cells transfected with human mpl receptor. It counts as cell-based. The following applies: cell proliferation assay. The procedure: Bioactivity assay. The TPO in vitro bioassay is a mitogenic assay utilizing an IL-3 dependent clone of murine 32D cells that have been transfected with human mpl receptor. This assay is described in greater detail in WO 95/26746. Cells are maintained in MEM medium containing 10% Fetal Clone II and 1 ng/ml mIL-3. Prior to sample addition, cells are prepared by rinsing twice with growth medium lacking mIL-3. An extended twelve point TPO standard curve is prepared, ranging from 3333 to 39 pg/ml. Four dilutions, estimated to fall within the linear portion of the standard curve, (1000 to 125 pg/ml), are prepared for each sample and run in triplicate. A volume of 100 μl of each dilution of sample or standard is added to appropriate wells of a 96 well microtiter plate containing 10,000 cells/well. After forty-four hours at 37° C. and 10% CO2, MTS (a tetrazolium compound which is bioreduced by cells to a formazan) is added to each well. Approximately six hours later, the optical density is read on a plate reader at 490 nm. A dose response curve (log TPO concentration vs. O.D.—Background) is generated and linear regression analysis of points which fall in the linear portion of the standard curve is performed. Concentrations of unknown test samples are determined using the resulting linear equation and a correction for the dilution factor.
The resulting peptides are readily accessible by conventional solid phase peptide synthesis methods (Merrifiled, R. B., Journal of the American Chemical Society 85:2149 (1963)) with either Fmoc or t-Boc chemistry. […] This might be due to differences in the conditions used in the two assays. […] It is interesting to note that a wide range of length is tolerated by the linker. The optimal linker with the selected TMP monomers (SEQ ID NO: 1) apparently is composed of 8 glycines.

The subject of another assay is platelets. The experiment in a line: platelet production in normal mice, dose response with 7-day micro-osmotic pumps. The assay is classed as in vivo. As for the experimental part: Mice. Normal female BDF1 approximately 10-12 weeks of age.
Bleed schedule. Ten mice per group treated on day 0, two groups started 4 days apart for a total of 20 mice per group. Five mice bled at each time point, mice were bled a minimum of three times a week. Mice were anesthetized with isoflurane and a total volume of 140-160 μl of blood was obtained by puncture of the orbital sinus. Blood was counted on a Technicon HIE blood analyzer running software for murine blood. Parameters measured were white blood cells, red blood cells, hematocrit, hemoglobin, platelets, neutrophils.
Treatments. Mice were either injected subcutaneously for a bolus treatment or implanted with 7 day micro-osmotic pumps for continuous delivery. Subcutaneous injections were delivered in a volume of 0.2 ml. Osmotic pumps were inserted into a subcutaneous incision made in the skin between the scapulae of anesthetized mice. Compounds were diluted in PBS with 0.1% BSA. All experiments included one control group, labeled “carrier” that were treated with this diluent only. The concentration of the test articles in the pumps was adjusted so that the calibrated flow rate from the pumps gave the treatment levels indicated in the graphs.
Compounds. A dose titration of the compound was delivered to mice in 7 day micro-osmotic pumps. Mice were treated with various compounds at a single dose of 100 ug/kg in 7 day osmotic pumps. Some of the same compounds were then given to mice as a single bolus injection.

Like-named read-outs stand apart in the source and are kept apart here. Positions of bridges follow the written chain, without caps; N, C: chain ends. Residues, ends and D or L forms follow the SMILES beside them. No end group written: not given here. PEG = not defined here

As for “IEGPTLRQWLAARA-OH [TMP monomer, IEGPTLRQWLAARA]”, the EC50 at c-Mp1 [1] was 400 nM. Further, the IC50 on c-Mp1 [2] (read-out: IC50) was 2 nM.
Consider `CC[C@H](C)[C@H](N)C(=O)N[C@@H](CCC(=O)O)C(=O)NCC(=O)N1CCC[C@H]1C(=O)N[C@H](C(=O)N[C@@H](CC(C)C)C(=O)N[C@@H](CCCNC(=N)N)C(=O)N[C@@H](CCC(N)=O)C(=O)N[C@@H](CS)C(=O)N[C@@H](CC(C)C)C(=O)N[C@@H](C)C(=O)N[C@@H](C)C(=O)N[C@@H](CCCNC(=N)N)C(=O)N[C@@H](C)C(=O)NCC(=O)NCC(=O)NCC(=O)NCC(=O)NCC(=O)NCC(=O)NCC(=O)NCC(=O)N[C@H](C(=O)N[C@@H](CCC(=O)O)C(=O)NCC(=O)N1CCC[C@H]1C(=O)N[C@H](C(=O)N[C@@H](CC(C)C)C(=O)N[C@@H](CCCNC(=N)N)C(=O)N[C@@H](CCC(N)=O)C(=O)N[C@@H](CS)C(=O)N[C@@H](CC(C)C)C(=O)N[C@@H](C)C(=O)N[C@@H](C)C(=O)N[C@@H](CCCNC(=N)N)C(=O)N[C@@H](C)C(=O)O)[C@@H](C)O)[C@@H](C)CC)[C@@H](C)O` [Peptide 15, IEGPTLRQCLAARA-GGGGGGGG-IEGPTLRQCLAARA] (H-IEGPTLRQCLAARAGGGGGGGGIEGPTLRQCLAARA-OH; N-terminus assumed), for which, at human mpl receptor, the “in vitro bioactivity, in words” value was “inactive”.
Turning to “IEGPTLRQWLAARAGPNGIEGPTLRQWLAARA-OH [Peptide 13, TMP-GPNG-TMP]”, at human mpl receptor, the “fold increase in potency as compared to the monomer” value was “about 100 fold” and the “fold less active than the GGGG-linked analog” value is listed as above 10 fold.
On to “IEGPTLRQALAARAGGGGGGGGIEGPTLRQALAARA-OH [Peptide 16, IEGPTLRQALAARA-GGGGGGGG-IEGPTLRQALAARA]”, for which, at human mpl receptor, the “in vitro bioactivity, in words” value is “inactive”.
As for “TMP-GGGK(PEG)GGGG-TMP (IEGPTLRQWLAARAGGGK(PEG)GGGGIEGPTLRQWLAARA; reading uncertain) [Peptide 19]”, in the assay with human mpl receptor, the “in vitro bioactivity, in words” value is reported as “higher in vitro bioactivity as compared to their unpegylated counterparts”.
On to `CC[C@H](C)[C@H](N)C(=O)N[C@@H](CCC(=O)O)C(=O)NCC(=O)N1CCC[C@H]1C(=O)N[C@H](C(=O)N[C@@H](CC(C)C)C(=O)N[C@@H](CCCNC(=N)N)C(=O)N[C@@H](CCC(N)=O)C(=O)N[C@H]1CSSC[C@@H](C(=O)N[C@@H](CC(C)C)C(=O)N[C@@H](C)C(=O)N[C@@H](C)C(=O)N[C@@H](CCCNC(=N)N)C(=O)N[C@@H](C)C(=O)O)NC(=O)[C@H](CCC(N)=O)NC(=O)[C@H](CCCNC(=N)N)NC(=O)[C@H](CC(C)C)NC(=O)[C@H]([C@@H](C)O)NC(=O)[C@@H]2CCCN2C(=O)CNC(=O)[C@H](CCC(=O)O)NC(=O)[C@H]([C@@H](C)CC)NC(=O)CNC(=O)CNC(=O)CNC(=O)CNC(=O)CNC(=O)CNC(=O)CNC(=O)CNC(=O)[C@H](C)NC(=O)[C@H](CCCNC(=N)N)NC(=O)[C@H](C)NC(=O)[C@H](C)NC(=O)[C@H](CC(C)C)NC1=O)[C@@H](C)O` [Peptide 14] (H-IEGPTLRQCLAARAGGGGGGGGIEGPTLRQCLAARA-OH; disulfide 9-31; N-terminus assumed), for which, on human mpl receptor, the “in vitro bioactivity, in words” value was “inactive”.
On the same count and under the same terms, with “IEGPTLRQWLAARAGGGNGSGGIEGPTLRQWLAARA-OH [Peptide 21, TMP-GGGNGSGG-TMP]” the entry was “activity comparable to that of the -(Gly)8-linked analog”.
With `CC[C@H](C)[C@H](N)C(=O)N[C@@H](CCC(=O)O)C(=O)NCC(=O)N1CCC[C@H]1C(=O)N[C@H](C(=O)N[C@@H](CC(C)C)C(=O)N[C@@H](CCCNC(=N)N)C(=O)N[C@@H](CCC(N)=O)C(=O)N[C@@H](Cc1c[nH]c2ccccc12)C(=O)N[C@@H](CC(C)C)C(=O)N[C@@H](C)C(=O)N[C@@H](C)C(=O)N[C@@H](CCCNC(=N)N)C(=O)N[C@@H](C)C(=O)NCCCC[C@H](NC(=O)CCNC(=O)[C@H](C)NC(=O)[C@H](CCCNC(=N)N)NC(=O)[C@H](C)NC(=O)[C@H](C)NC(=O)[C@H](CC(C)C)NC(=O)[C@H](Cc1c[nH]c2ccccc12)NC(=O)[C@H](CCC(N)=O)NC(=O)[C@H](CCCNC(=N)N)NC(=O)[C@H](CC(C)C)NC(=O)[C@@H](NC(=O)[C@@H]1CCCN1C(=O)CNC(=O)[C@H](CCC(=O)O)NC(=O)[C@@H](N)[C@@H](C)CC)[C@@H](C)O)C(N)=O)[C@@H](C)O` [TMP C-C dimer], the EC50 on c-Mp1 [1] was 0.1 nM. Moreover, the IC50 on c-Mp1 [2] (read-out: binding affinity) is 0.5 nM.
For the compound “TMP-GGGC(PEG)GGGG-TMP (IEGPTLRQWLAARAGGGC(PEG)GGGGIEGPTLRQWLAARA; reading uncertain) [Peptide 20]”, the “activity compared with unpegylated rHu-MGDF” value in the assay on platelets (10 μg/kg/day vs 100 μg/kg/day unpegylated rHu-MGDF, same experiment) is “about equally active”. Also, the “percent of maximal activity” value in the assay with platelets (10 μg/kg/day, 7-day micro-osmotic pumps) was “about 50%”. In the assay on platelets (7-day micro-osmotic pumps, data not shown), the “dose at which the maximum effect was seen” value came to 100 µg/kg/day. Also, the “in vitro bioactivity, in words” value in the assay with human mpl receptor is “higher in vitro bioactivity as compared to their unpegylated counterparts”.
